Measurements from the supplement of paper PMC11061612.

Columns and labels:
Assay in all cases: Bliss excess, mean over the matrix (fraction); higher = more synergy
[1] = test system: DBTRG-05MG (Glioblastoma)
Method in brief: (§1)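 Cell lines grown in DMEM/F12 or RPMI with 10% FBS were plated in 1536-well plates and held 24 hours at 37°C, 5% CO2 before 72 hours of exposure to two-drug dose matrices, with DMSO typically at 0.2%. CellTiter-Glo 2.0 luminescence gave viability, which was converted to inhibition. Vehicle wells were set to 0 and blank wells to 1. Combination Emax is the second-highest inhibition in the matrix, and Bliss excess is the observed combination effect minus the expected EA + EB − EA·EB, where EA and EB are the single-agent effects.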

GAK (Melanoma) = test system: GAK (Melanoma)
Method in brief: as §1

[2] = test system: HT-1080 (Other Solid Carcinomas)
Method in brief: as §1

IST-MEL1 (Melanoma) = test system: IST-MEL1 (Melanoma)
Method in brief: as §1

[3] = test system: LCLC-103H (Non-Small Cell Lung Carcinoma)
Method in brief: as §1

[4] = test system: MDA-MB-415 (Breast Carcinoma)
Method in brief: as §1

[5] = test system: MM1S (Plasma Cell Myeloma)
Method in brief: as §1

[6] = test system: MOLP-8 (Plasma Cell Myeloma)
Method in brief: as §1

[7] = test system: MS-1 (Small Cell Lung Carcinoma)
Method in brief: as §1

[8] = test system: NAMALWA (Burkitt's Lymphoma)
Method in brief: as §1

NB1 (Neuroblastoma) = test system: NB1 (Neuroblastoma)
Method in brief: as §1

[9] = test system: NCI-H1341 (Small Cell Lung Carcinoma)
Method in brief: as §1

NCI-H2373 (Mesothelioma) = test system: NCI-H2373 (Mesothelioma)
Method in brief: as §1

[10] = test system: NMC-G1 (Low Grade Glioma)
Method in brief: as §1

[11] = test system: PA-TU-8988T (Pancreatic Carcinoma)
Method in brief: as §1

[12] = test system: PL4 (Pancreatic Carcinoma)
Method in brief: as §1

SK-N-SH (Neuroblastoma) = test system: SK-N-SH (Neuroblastoma)
Method in brief: as §1

T47D (Breast Carcinoma) = test system: T47D (Breast Carcinoma)
Method in brief: as §1

UACC-257 (Melanoma) = test system: UACC-257 (Melanoma)
Method in brief: as §1

WM35 (Melanoma) = test system: WM35 (Melanoma)
Method in brief: as §1

| SMILES | Bliss excess [1] | Bliss excess (GAK (Melanoma)) | Bliss excess [2] | Bliss excess (IST-MEL1 (Melanoma)) | Bliss excess [3] | Bliss excess [4] | Bliss excess [5] | Bliss excess [6] | Bliss excess [7] | Bliss excess [8] | Bliss excess (NB1 (Neuroblastoma)) | Bliss excess [9] | Bliss excess (NCI-H2373 (Mesothelioma)) | Bliss excess [10] | Bliss excess [11] | Bliss excess [12] | Bliss excess (SK-N-SH (Neuroblastoma)) | Bliss excess (T47D (Breast Carcinoma)) | Bliss excess (UACC-257 (Melanoma)) | Bliss excess (WM35 (Melanoma)) |
| --- | --- | --- | --- | --- | --- | --- | --- | --- | --- | --- | --- | --- | --- | --- | --- | --- | --- | --- | --- | --- |
| C=CCn1c(=O)c2cnc(Nc3ccc(N4CCN(C)CC4)cc3)nc2n1-c1cccc(C(C)(C)O)n1 [AZD1775] + C[C@@H]1COCCN1C2=NC(=NC(=C2)C3(CC3)[S@](=N)(=O)C)C4=C5C=CNC5=NC=C4 [AZD6738] (first compound max 1 µM, partner max 10 µM) | -0.0076 | 0.0196 | 0.0145 | 0.021 | 0.0108 | 0.0112 | -0.0128 | -0.0064 | 0.0322 | 0.0397 | -0.0161 | 0.0723 | 0.025 | -0.0028 | 0.0222 | 0.0501 | -0.0285 | -0.0302 | 0.0398 | 0.0626 |
| CC1(C)CCC(CN2CCN(c3ccc(C(=O)NS(=O)(=O)c4ccc(NCC5CCOCC5)c([N+](=O)[O-])c4)c(Oc4cnc5[nH]ccc5c4)c3)CC2)=C(c2ccc(Cl)cc2)C1 [Venetoclax] + C1CN(CCC1(C(=O)N[C@@H](CCO)C2=CC=C(C=C2)Cl)N)C3=NC=NC4=C3C=CN4 [Capivasertib] (first compound max 1 µM, 7x7, partner max 3 µM) | -0.0522 | -0.0305 | -0.0351 | -0.0762 | -0.0756 | -0.102 | -0.0028 | -0.0114 | -0.0572 | -0.0126 | -0.0596 | 0.0321 | -0.0774 | -0.0683 | 0.0237 | -0.0363 | -0.0998 | -0.0113 | -0.0707 | -0.0456 |
| COc1cccc(OCCCN)c1-c1cc(Nc2cnc(C#N)cn2)n[nH]1 [Prexasertib] + C[C@@H]1COCCN1C2=NC(=NC(=C2)C3(CC3)[S@](=N)(=O)C)C4=C5C=CNC5=NC=C4 [AZD6738] (first compound max 1 µM, 7x7, partner max 10 µM) | -0.0378 | -0.0092 | -0.0089 | -0.0131 | 0.0242 | -0.0055 | -0.0953 | -0.0366 | -0.0136 | -0.0052 | 0.0001 | -0.0683 | -0.0628 | 0.0155 | 0.0224 | -0.0024 | -0.0425 | 0.0003 | 0.0005 | -0.026 |
| CC1(C)CCC(CN2CCN(c3ccc(C(=O)NS(=O)(=O)c4ccc(NCC5CCOCC5)c([N+](=O)[O-])c4)c(Oc4cnc5[nH]ccc5c4)c3)CC2)=C(c2ccc(Cl)cc2)C1 [Venetoclax] + CCN(CCO)CCCOc1ccc2c(Nc3cc(CC(=O)Nc4cccc(F)c4)[nH]n3)ncnc2c1 [AZD2811] (first compound max 1 µM, 7x7, partner max 1 µM) | -0.0171 | -0.0537 | -0.0407 | 0.0278 | -0.0756 | -0.0081 | 0.0157 | 0.025 | -0.045 | 0.0894 | -0.0139 | 0.0606 | -0.0047 | -0.0253 | -0.0549 | -0.0704 | 0.0471 | 0.0229 | -0.0105 | -0.0397 |
| CN(CCO)CC[C@H](CSc1ccccc1)Nc1ccc(S(=O)(=O)NC(=O)c2ccc(N3CCC([C@@H](O)c4ccccc4-c4ccc(Cl)cc4)CC3)cc2)cc1S(=O)(=O)C(F)(F)F [AZD4320] + C=CCn1c(=O)c2cnc(Nc3ccc(N4CCN(C)CC4)cc3)nc2n1-c1cccc(C(C)(C)O)n1 [AZD1775] (first compound max 1 µM, partner max 1 µM) | 0.0555 | -0.0536 | -0.0354 | 0.0339 | 0.0297 | -0.0034 | 0.0981 | 0.0782 | 0.112 | -0.0219 | 0.0014 | 0.0676 | -0.0089 | 0.0422 | 0.0011 | -0.0586 | -0.0141 | -0.0509 | -0.0419 | -0.0178 |
| Cc1c2c(nn1C)CSCc1cc(n(C)n1)CSc1cc(c3ccccc3c1)OCCCc1c(C(=O)O)n(C)c3c-2c(Cl)ccc13 [AZD5991] + CN(C)CCCOc1ccc(-c2ccc3ncc4c(c3c2)n(C2CCOCC2)c(=O)n4C)cn1 [AZD0156] (first compound max 1 µM, 7x7, partner max 1 µM) | 0.0252 | 0.0152 | -0.0148 | -0.0282 | 0.0401 | -0.0183 | 0.0391 | 0.0086 | -0.0347 | -0.0079 | -0.0522 | 0.0072 | -0.0069 | -0.0387 | 0.0146 | 0.056 | 0.0204 | 0.0093 | -0.0064 | 0.0155 |
| Cc1cc2ncnn2cc1Nc1ncc2c(n1)n(C1CCOCC1)c(=O)n2C [AZD7648] + CN(C)CCCOc1ccc(-c2ccc3ncc4c(c3c2)n(C2CCOCC2)c(=O)n4C)cn1 [AZD0156] (first compound max 10 µM, 7x7, partner max 1 µM) | -0.0363 | 0.0232 | -0.0246 | -0.0228 | -0.0422 | -0.0254 | 0.0196 | 0.0712 | 0.0245 | -0.0224 | 0.0084 | 0.0157 | -0.0077 | -0.0497 | 0.0174 | -0.0153 | -0.0046 | 0.0055 | -0.02 | -0.0123 |
